Each block holds one compound with its values, some of them ahead of it.
What was measured:
[1] = system: primary human preadipocytes; experiment: Adipogenesis assay (adipogenic biomarkers, Oil Red O staining); assay type: cell-based; details: for EC50: read-out: EC50 (anti-adipogenic phytonutrients)
Description: Adipogenesis Assays. Primary human preadipocytes were grown to confluence in growth media. At 2 days post-confluence, growth media were aspirated off the culture dishes and complete differentiation media were added. Complete differentiation media comprise […] with 18.5 mM glucose, HEPES (15 mM), NaHCO3 (25 mM), 100 units/ml penicillin, 100 μg/ml streptomycin, d-biotin (33 μM), pantothenate (17 μM), dexamethasone (100 nM), insulin (100 nM), rosiglitazone (1 μM), IBMX (0.5 mM), triiodothyronine (T3, 2 nM), and transferrin (10 μg/ml). On day three post-differentiation, complete differentiation media were replenished. On day seventh post-differentiation, complete differentiation media were replaced with maintenance media. Maintenance media comprise […], 100 units/ml penicillin, 100 μg/ml streptomycin, HEPES (15 mM), NaHCO3 (25 mM), d-biotin, pantothenate, insulin (10 nM), and dexamethasone (10 nM). Maintenance media were replenished on days tenth post-differentiation. Complete differentiation of preadipocytes into adipocytes were achieved on day fourteenth post-differentiation. To screen for anti-adipogenic phytonutrients, individual phytonutrients were mixed in complete differentiation media from day 0 to day 6th post-differentiation. Phytonutrients were removed together with complete differentiation media on day 7th post-differentiation following the replacement with maintenance media. Anti-adipogenic phytonutrients were identified based on their ability to: (1) suppress the expression of adipogenic biomarkers using proteomic assays of total cell extracts collected on day 6th post-differentiation, and (2) suppress intracellular lipid droplet accumulation using Oil Red O staining assays on day 14th post-differentiation.

Akt = experiment: Capillary Western and cIEF immunoassays of pAkt (Thr308), pAkt (Thr450), pAkt (Ser473); assay type: cell-based, human; details: for increase of pAkt (Ser473) phosphorylation / increase of pAkt (Thr308) phosphorylation / increase of pAkt (Thr450) phosphorylation: 30 minutes treatment, versus untreated control, capillary Western densitometry
Description: (§1) Human Primary Preadipocytes. Primary human preadipocytes were isolated from omental adipose tissues overweight and diabetic donors who were undergoing elective surgery using a previously published protocol. Primary human preadipocytes were maintained in growth media comprising Minimum Essential Medium a supplemented with 10% fetal bovine serum, 100 units/ml penicillin, and 100 μg/ml streptomycin.
(§2) Screening for Insulin-Sensitizing Phytonutrients. Primary human preadipocytes were treated for 30 minutes with 100 nM insulin (Humulin R, Eli Lilly, Indianapolis, Ind.), individual phytonutrients (Table 1 & Table 2), or combinations of insulin and phytonutrients. Total cell extracts (TCE) were collected and subjected to nanofluidic proteomic analysis including capillary isoelectric focusing (cIEF) immunoassays and capillary Western (CW) immunoassays.
(§3) Preparation of Total Cell Extracts. Approximately one million cells were incubated on ice for 10 minutes with 60 μl of lysis buffer (cat. no. 040-764, ProteinSimple, Santa Clara, Calif., USA), sonicated 4 times for 5 seconds each, mixed by rotation for 2 hours at 4° C., and centrifuged at 12,000 rpm in an Eppendorf 5430R microfuge for 20 minutes at 4° C. The supernatant was collected as the cell lysate. The total protein concentration in the cell lysate was determined with a Bradford protein assay and adjusted to a final concentration of 0.3 μg/μl with separation gradients (cat. no. Premix G2, pH 5-8, ProteinSimple, Santa Clara, Calif.) for charge-based cIEF immunoassays or to 0.4 μg/μl with denaturing buffers (cat. no. PS-ST01EZ or PS-ST03EZ, ProteinSimple) for size-based Western immunoassays.
(§4) Capillary Isoelectric Focusing Immunoassays. Cell lysates in separation gradients were loaded into 384-well assay plates (cat. no. 040-663, ProteinSimple) preloaded with primary and secondary antibodies and chemiluminescent substrates. Charge-based protein separation and detection in individual capillaries were performed using the default protocols of the NanoPro 1000 system (ProteinSimple). Hsp70 was used as the loading control. All cIEF immunoassays were performed in triplicate for each protein, and duplicate experiments were performed for each treatment condition, producing six repeated measurements per protein.
Capillary Western Immunoassays. Cell lysates in denaturing buffers were denatured at 95° C. for 5 minutes, and then transferred to assay plates (cat. no. SM-W004 or SM-W008, ProteinSimple) preloaded with blocking reagents, wash buffer, primary and secondary antibodies, and chemiluminescent substrates. Sized-based protein separation and detection in capillaries were performed using the default protocols of the Jess system (ProteinSimple). β-Actin was used as loading controls. All capillary Western immunoassays were performed in triplicate for each protein, and duplicate experiments were performed for each treatment condition, producing six repeated measurements per protein.

[2] = system: primary human preadipocytes; experiment: Glucose uptake assay (2-NBDG, flow cytometry); assay type: cell-based; details: together with 100 nM insulin, compared to insulin alone, 30 minutes
Description: The glucose uptake assay used 2-NBDG, a fluorescently-labeled deoxyglucose analog, as a probe for the detection of glucose taken up by human primary preadipocytes. Flow cytometry was used to detect 2-NBDG uptake in single preadipocytes.
Glucose Uptake Assays. Primary human preadipocytes grown to 70% confluence in growth media, washed with phosphate buffered saline, and replaced with glucose-free DMEM media. Following 2 hours of incubation in glucose-free DMEM media, preadipocytes were treated with 100 μg/ml of 2-NDBG fluorescent glucose analog and insulin (100 nM) or phytonutrients (EC50) for 30 minutes. Preadipocytes were collected and analyzed using the Acuri C6 flow cytometer (BD Biosciences, San Jose, Calif.) and the 485 nm excitation and 535 nm emission filters.

Akt2 = experiment: Screening for insulin-sensitizing phytonutrients: cIEF immunoassays of Akt2 phosphorylation; assay type: cell-based, human; details: for EC50: half-maximal effective concentration, primary human preadipocytes; for Akt2 phosphorylation on cIEF electropherogram: treatment alone, 30 minutes, versus untreated control; for increase of insulin-stimulated pAkt2 (Ser473) phosphorylation: together with 100 nM insulin, compared to insulin alone, cIEF
Text: (§5) Mapping Akt Isoforms Using Capillary Isoelectric Focusing (cIEF) Immunoassays. cIEF immunoassays separate proteins in total cell extracts (TCEs) by their isoelectric points (pIs) in nano-capillaries. The positions of the proteins are stabilized via UV-irradiated crosslinking of proteins to the sidewalls of the capillaries. A primary antibody that recognizes a specific protein of interest is introduced to individual capillaries. Then a secondary antibody linked to horseradish peroxidase is introduced. Following the introduction of the chemiluminescent substrates, the distribution of the isoforms of a protein is detected and presented graphically as electropherograms of intensity versus isoelectric points. Phosphorylation and acetylation of a protein generally leads to shifts toward lower pI values. In contrast, glycosylation of a protein generally leads to a shift toward higher pI values.
as §1, §2, §3, §4

Akt1 = experiment: cIEF immunoassays of Akt1; assay type: cell-based, human; details: for Akt1 cIEF electropherogram: treatment alone, 30 minutes, versus untreated
Text: as §5, §2
as §3, with “The supernatant was collected as the cell lysate.” left out, “immunoassays. […]” for “immunoassays.”

Akt3 = experiment: cIEF immunoassays of Akt3; assay type: cell-based, human; details: for Akt3 cIEF electropherogram: treatment alone, 30 minutes, versus untreated
Text: as §5, §2
as §3, with “The supernatant was collected as the cell lysate.” left out, “immunoassays. […]” for “immunoassays.”

[3] = half-maximal effective concentration, primary human preadipocytes
[4] = together with insulin, compared to insulin alone

EC50 [1, 3]: 20 µM
Compound: O=c1cc(-c2ccc(O)c(O)c2)oc2cc(O)cc(O)c12 [Luteolin]

EC50 [1, 3]: 20 µM
Compound: OCc1c[nH]c2ccccc12 [Indole-3-Carbinol]

EC50 [1, 3]: 25 µM
Compound: O=c1c(O)c(-c2ccc(O)c(O)c2)oc2cc(O)cc(O)c12 [Quercetin]

EC50 [1, 3]: 40 µM
Compound: Oc1ccc(C=Cc2cc(O)cc(O)c2)cc1 [Resveratrol]

More lines, now with the values behind:

Compound: O=CC=Cc1ccccc1 [Cinnamaldehyde]
increase of pAkt (Ser473) phosphorylation (Akt): no effect | increase of pAkt (Thr308) phosphorylation (Akt): no effect | increase of pAkt (Thr450) phosphorylation (Akt): 1.6 folds | increase of insulin-stimulated pAkt (Ser473) phosphorylation (Akt; together with 100 nM insulin, compared to insulin alone, cIEF and CW immunoassays): ~4 folds | increase of insulin-stimulated glucose uptake by preadipocytes [2]: approximately 1.6 folds | EC50 (Akt2): 40 µM | Akt2 phosphorylation on cIEF electropherogram (Akt2): new peak at pI 5.41 | phosphorylation of Akt1 on cIEF electropherogram (Akt1; [4]): no observable effect | Akt1 cIEF electropherogram (Akt1): no observable effect | phosphorylation of Akt3 on cIEF electropherogram (Akt3; [4]): no observable effect | Akt3 cIEF electropherogram (Akt3): no observable effect

Compound: COc1cc(/C=C/C(=O)CC(=O)/C=C/c2ccc(O)c(OC)c2)ccc1O [Curcumin]
increase of insulin-stimulated glucose uptake by preadipocytes [2]: ~1.7 folds | EC50 (Akt2): 20 µM | increase of insulin-stimulated pAkt2 (Ser473) phosphorylation (Akt2): approximately 4 folds | Akt2 phosphorylation on cIEF electropherogram (Akt2): new peak at pI 5.41

Compound: Fucoidan
EC50 (anti-adipogenic phytonutrients) [1, 3]: 100 µg/mL

Compound: COc1ccc2cc3[n+](cc2c1OC)CCc1cc2c(cc1-3)OCO2 [Berberine]
increase of insulin-stimulated glucose uptake by preadipocytes [2]: no effect | inhibition of adipogenesis ([1]; differentiating primary human preadipocytes): strong inhibitor of adipogenesis | EC50 [1, 3]: 10 µM | increase of insulin-stimulated pAkt2 (Ser473) phosphorylation (Akt2): no effect | Akt2 phosphorylation on cIEF electropherogram (Akt2): no effect

Compound: O=c1c(O)c(-c2ccc(O)c(O)c2)oc2cc(O)ccc12 [Fisetin]
EC50 [1, 3]: 50 µM

Compound: O=C(O[C@@H]1Cc2c(O)cc(O)cc2O[C@@H]1c1cc(O)c(O)c(O)c1)c1cc(O)c(O)c(O)c1 [Epigallocatechin Gallate]
EC50 [1, 3]: 20 µM

Compound: COc1ccc([C@@H]2CC(=O)c3c(O)cc(O[C@@H]4O[C@H](CO[C@@H]5O[C@@H](C)[C@H](O)[C@@H](O)[C@H]5O)[C@@H](O)[C@H](O)[C@H]4O)cc3O2)cc1O [Hesperidin]
EC50 [1, 3]: 20 µM

Compound: insulin: 100 nM insulin (Humulin R, Eli Lilly) [reference compound]
increase of pAkt (Ser473) phosphorylation (Akt): ~5.7 folds | increase of pAkt (Thr308) phosphorylation (Akt): approximately 3 folds | increase of pAkt (Thr450) phosphorylation (Akt): ~1.6 folds | Akt2 phosphorylation on cIEF electropherogram (Akt2): two new peaks at pI 5.20 and pI 5.30 | Akt1 cIEF electropherogram (Akt1): nearly identical | Akt3 cIEF electropherogram (Akt3): two new peaks at pI 5.03 and pI 5.12

From patent publication US20220362227A1, “COMPOSITION OF PHYTONUTRIENTS FOR DIABETES MANAGEMENT” (ROSEMAN UNIVERSITY OF HEALTH SCIENCES, priority 2021, published 2022)
